Experimental data from patent US12496297B1, “Compositions of autophagy modulating agents and uses thereof” (Washington University, priority 2020, dated 2025).
pIC50: −log10 of the molar value. Entries after “also recorded” stand apart in the source; their conditions may differ.

Assays:
PiZ mouse model of ATD = assay: PiZ mouse model of ATD, oral gavage; assay type: in vivo; conditions: PiZ mouse
Procedure: The PiZ mouse model has been described previously (Hidvegi 2010 Science 329 (5988): 229-232). For experiments involving drug administration in mice in vivo, doses of 5-50 mg/kg/day for the G2 analog were given for 3 weeks, and then liver histological and biochemical characteristics were assessed exactly as previously described (Hidvegi 2005J Biol Chem 280 (47): 39002-39015). Each experimental group contained 4-6 four- to six-month old male mice randomly chosen from littermates. G2 analogs were delivered by oral gavage. Control mice were littermates given DMSO by gavage. The outcome was determined by evaluating 1) the hepatic ATZ load by immunoblotting with anti-AT, immunostaining with PAS/D; 2) hepatic fibrosis using Sirius Red staining; 3) autophagy by immunoblotting with anti-LC3 and anti-p62, and imaging for GFP+autophagosomes; 4) monitoring blood glucose levels by glucometer and blood insulin levels by ELISA Wide Range Assay (CrystalChem). For immunostaining, liver samples were fixed in 10% Formalin, followed by staining with PAS after diastase and Sirius Red using standard techniques. Quantitative evaluation of immunostaining and histochemical staining was carried out by a member of the team that was blinded to group allocation. Blood glucose and insulin levels were quantified as previously described (Wang 2019 PLOS One 14: e0209748).
For immunoblot analysis of proteins in liver, the liver was snap frozen in liquid nitrogen and stored at −80° C. Liver was homogenized in 50 mM Tris-HCl pH 8.0, 150 mM NaCl, 2 mM KCl, 2 mM MgCl2, 0.5% Triton X-100, 0.5% deoxycholic acid containing 0.1 mM […] and Complete protease inhibitor cocktail from Roche. Total protein concentration was measured by BCA assay (Pierce) and followed by western blotting as described previously.

[1] = test system: striatal neurons from control 2171WT; assay: Cell death (SytoX assay) in striatal neurons from control individual; assay type: cell-based, human; conditions: doses of 5 and 10 μM; data not shown
Procedure: (§1) Striatal neurons from Huntington's patient GM 04198 and control 2171WT were prepared as previously described. Cells, at 24 days after induction, were incubated with G2 analog or an equivalent volume of DMSO for 14 days (drug/DMSO added with medium change every 4 days) and then cell death was determined by SytoX assay as previously described.

[2] = test system: C. elegans model of ATD (sGFP::ATZ); assay: Quantification of ATZ accumulation in C. elegans model of ATD (Z worm); assay type: in vivo; conditions: 24 h incubation, FIG. 9
Procedure: The C. elegans strain VK1882 (vkls1882 [nhx-2p::sGFP::ATZ; myo-2p::mCherry) was routinely cultured at 20° C. on nematode growth medium plates seeded with E. coli strain OP50. Quantitative analysis of ATZ accumulation was carried out by detection of fluorescence using the Thermofisher CellInsight CX-7 high content imager as previously described. L4 stage animals were placed into wells of 384-well plates (30 per well) containing G2 analogs or an equivalent volume of DMSO. Following incubation at 20° C. for 24 hours, sodium azide was added to a final concentration of […] to anesthetize the animals and then each well was imaged on the CX-7 high content imager for quantification.

[3] = test system: HTT inclusion bodies (IBs) in HD-MSNs; assay: HTT inclusion bodies / mHTT aggregation in HD-MSNs; assay type: cell-based, human; conditions: HD-MSNs, compared to the inactive form, FIG. 13
Procedure: Adult dermal fibroblasts from symptomatic HD patients (Coriell NINDS and NIGMS Repositories: ND33947, ND30013, GM02173, GM04230, GM04198, GM02147), presymptomatic HD patients (GM04717, GM04861, GM04855, GM04831, GM04857, GM04829), and healthy controls (GM02171) were acquired from the Coriell Institute for Medical Research. The lentiviral cocktail of rtTA, pTight-9-124-BclxL, CTIP2, MYT1L, DLX1, and DLX2 was added to human fibroblasts for 16 h, then cells were washed and fed with fibroblasts media containing 1 μg/mL doxycycline (DOX). Briefly, transduced fibroblasts were maintained in fibroblasts media for two days with doxycycline before selection with Puromycin ([…]) on day 3, then were plated onto poly-ornithine, fibronectin, and laminin-coated coverslips on day 5. Cells were subsequently maintained in NeurobasalA (Gibco) media containing B-27 plus supplement and GlutaMAX supplemented with valproic acid (1 mM), dibutyryl cAMP ([…]), BDNF (10 ng/ml), NT-3 (10 ng/ml), and RA ([…]) until day 13. […]
Reprogramming cells were fixed with 4% paraformaldehyde (Electron Microscopy Sciences, #15710) for 20 min at room temperature (RT), and then permeabilized with 0.2% Triton X-100 for 10 min at RT. […] Images were captured using a Leica SP5X white light laser confocal system with Leica Application Suite (LAS) Advanced Fluorescence 2.7.3.9723.

[4] = test system: striatal neurons from Huntington's patient GM 04198; assay: Cell death (SytoX assay) in striatal neurons from Huntington's patient; assay type: cell-based, human
Procedure: as §1

[5] = test system: α1-antitrypsin Z variant (ATZ); assay: Steady state levels of ATZ in HTO/Z cell line (immunoblot); activity of G2 analogs; assay type: cell-based, human; conditions: for effect on cellular ATZ levels: 48 hrs incubation, immunoblot, FIG. 8 / FIG. 14; for Activity: G2 and G2 analogs, positive activity if shown to have any activity, not quantified; for pIC50: TABLE 1, assay not given
Procedure: For experiments with G2 analogs, Tet-off inducible cell lines were cultured in absence of doxycycline for at least 12 days to ensure expression of […] or its variants. The cells were then sub-cultured into separate monolayers in fresh complete growth medium and incubated for 48 hours in the absence or presence of G2 analog. […] All compounds available commercially were purchased except for G2-22, which was synthesized with routine chemistry.
Cells were lysed in NP40 buffer and then separated into insoluble and soluble fractions according to a previously established technique. Samples were subjected to immunoblot analysis for AT and GAPDH. For immmunoblot analysis to detect AT or GAPDH, cells were lysed in 50 mM Tris-HCl, 150 mM NaCl, 1% NP-40, pH 8.0. Protein concentrations were determined by BCA protein assay (Pierce Biotechnology, Rockford, IL). […] The membranes were blocked in 5% milk and then incubated overnight at 4° C. with primary antibody for AT (1:1000, Diasorin), LC3 (1:2000, Sigma), p62 (1:1000, Cell signaling, Danvers, MA), ATG5 (1:1000, Cell signaling), mTOR substrate sampler (1:1000 for all antibodies, Cell signaling). Donkey anti-goat Ig (Jackson Labs, Bar Harbor, ME), goat anti-rabbit lg (1:50,000), or goat anti-mouse Ig (1:50,000) were used as secondary antibodies in TBST at RT, 1 hour. Blots were visualized with ECL or West Femto from Pierce. Membranes were re-probed with GAPDH (1:5000, Sigma) as loading control. Insoluble samples were stained with Gel Code Blue as loading control.

pIC50 [5]	SMILES	Activity [5]	further results
–	Cn1ccc2cc(Cl)ccc2c1=O [G2-19, 6-chloro-2-methylisoquinolin-1(2H)-one]	Active (Highly Active)	hepatic ATZ load (PiZ mouse model of ATD): reduced hepatic ATZ load; insulin secretion (PiZ mouse model of ATD): without affecting insulin secretion; hepatic / liver fibrosis (Sirius Red staining) (PiZ mouse model of ATD; G2-19: 3 weeks of treatment vs placebo): marked and statistically significant decrease; neuronal death (percent SYTOX positive cells) [1]: no effect; effect on ATZ levels in intestinal cells of the ATZ worm ([2]; GFP/RFP fluorescence): dose-dependent decrease in ATZ levels; also recorded: not as potent as positive control prochlorperazine (PCP); reduction in ATZ levels (fluorescence) ([2]; at 40 µM): ~50%; HTT inclusion body (IB) [3]: lowers HTT inclusion body (IB); cell death (percent SYTOX positive cells) ([4]; FIG. 11, dose-dependent between 0.5 and 10 μM, 14 days): reduces cell death; neuronal death (percent SYTOX positive cells) ([4]; second experiment, FIG. 12, doses of 5 and 10 μM): reduced neuronal death; effect on cellular ATZ levels [5]: reduces ATZ levels in a dose-dependent manner; also recorded: more potent than G2-3; reduction of ATZ levels ([5]; dose of 5 μM, 48 hrs, FIG. 8): 60%
6.00 to 7.00	O=c1ccc2ccc(Cl)cc2[nH]1 [G2-69, 7-chloroquinolin-2(1H)-one]	Active (Most Highly Active)	–
–	O=c1ncc2cc(Cl)ccc2[nH]1 [G2-71, 6-chloroquinazolin-2(1H)-one]	Inactive	–
–	Cn1c(=O)ccc2ccc(-c3cccnc3)cc21 [G2-83, 1-methyl-7-(pyridin-3-yl)quinolin-2(1H)-one]	Inactive	–
–	Cn1c(=O)ccc2ccc(Nc3ccccn3)cc21 [G2-91, 1-methyl-7-(pyridin-2-ylamino)quinolin-2(1H)-one]	Inactive	–
5.00 to 6.00	O=c1ccc2ccc(F)cc2[nH]1 [G2-124, 7-fluoroquinolin-2(1H)-one]	Active	–
5.00 to 6.00	O=c1ccc2ccc(C3CC3)cc2[nH]1 [G2-156, 7-cyclopropylquinolin-2(1H)-one]	Active	–
5.00 to 6.00	O=c1ccc2c(N3CCCCC3)cc(Cl)cc2[nH]1 [G2-195, 7-chloro-5-(piperidin-1-yl)quinolin-2(1H)-one]	Active	–
5.00 to 6.00	O=c1ccc2c(-c3ccccc3)cc(Cl)cc2[nH]1 [G2-196, 7-chloro-5-phenylquinolin-2(1H)-one]	Active	–
5.00 to 6.00	O=c1ccc2c(-c3ncccn3)cc(Cl)cc2[nH]1 [G2-197, 7-chloro-5-(pyrimidin-2-yl)quinolin-2(1H)-one]	Active	–
6.00 to 7.00	CCCCCCOc1cc(Cl)cc2[nH]c(=O)ccc12 [G2-218, 7-chloro-5-(hexyloxy)quinolin-2(1H)-one]	Active	effect on cellular ATZ levels [5]: reduce ATZ levels in a dose-dependent manner
5.00 to 6.00	O=c1ccc2c(Cl)cc(-c3ccccc3)cc2[nH]1 [G2-233, 5-chloro-7-phenylquinolin-2(1H)-one]	Active	–
5.00 to 6.00	O=c1ccc2c(Cl)cc(N3CCCCC3)cc2[nH]1 [G2-235, 5-chloro-7-(piperidin-1-yl)quinolin-2(1H)-one]	Active	–
6.00 to 7.00	O=C(c1cc(Cl)c2ccc(=O)[nH]c2c1)N1CCCCC1 [G2-237, 5-chloro-7-(piperidine-1-carbonyl)quinolin-2(1H)-one]	Active	effect on cellular ATZ levels [5]: reduce ATZ levels in a dose-dependent manner
5.00 to 6.00	CCCCCCOc1cc(Cl)c2ccc(=O)[nH]c2c1 [G-211, 5-chloro-7-(hexyloxy)quinolin-2(1H)-one]	Active	–
